In publication PMC7019114, “Bioactivity, Compounds Isolated, Chemical Qualitative, and Quantitative Analysis of Cymbaria daurica Extracts” (Frontiers in Pharmacology, 2020):

Key:
[1] = test system: streptozotocin-induced diabetic rats; set-up: method as in Huang et al., 2010; conditions: intravenous injection, ref Huang et al., 2010; cited from earlier work
[2] = test system: intestinal inflammation model; set-up: method as in Carrillo-Ocampo et al., 2013; conditions: ref Carrillo-Ocampo et al., 2013; cited from earlier work
[3] = test system: tyrosine phosphatase SHP-1; set-up: method as in Pesce et al., 2015; conditions: U937 cell line; ref Pesce et al., 2015; cited from earlier work
[4] = test system: LPS-induced NO production in RAW 264.7 cell; assay: Nitric oxide assay (Griess test), LPS-induced NO production; format: cell-based; conditions: Mus musculus; RAW264.7 cell, LPS 1 μg/mL, positive control, n = 5; read-out: IC50 of inhibitory activity on LPS-induced NO production
Experimental: RAW 264.7 mouse macrophages were cultured in high glucose DMEM supplemented with 10% FBS and a mixture of penicillin and streptomycin. The cells were maintained in a humidified incubator with an atmosphere of 5% CO2 at 37°C. RAW 264.7 cells were plated at a density of 5 × 10^5 cells/mL in 24-well plates, cultured for 12 h, and then treated with LPS (1 μg/mL) and incubated for 4 h. Thereafter, the cells were treated with different concentrations (25, 50, 100, 200, and 400 μg/mL) of C. daurica extracts (water, n-butanol, ethyl acetate, and petroleum-ether extracts) and incubated for an additional 20 h. […] The amount of NO in the medium was detected using the Griess test. One hundred microliters of each supernatant were mixed with equal volume of Griess reagent (1% sulfanilamide in 5% phosphoric acid and 0.1% naphthylethylenediamine dihydrochloride in water). The absorbance of the mixture at 550 nm and concentration of nitrite were determined using serially diluted sodium nitrite as the standard ([Qiao et al., 2005]).

## OC[C@H]1O[C@@H](O[C@@H]2OC=C[C@H]3[C@H](O)[C@@H]4O[C@]4(CO)[C@@H]23)[C@H](O)[C@@H](O)[C@@H]1O [Compound 1, catalpol]
[1]
  anti-hyperglycemic activity: exhibited anti-hyperglycemic activity in a dose-dependent manner

## C[C@@H]1O[C@@H](O[C@@H]2[C@@H](O)[C@H](OCCc3ccc(O)c(O)c3)O[C@H](CO)[C@H]2OC(=O)/C=C/c2ccc(O)c(O)c2)[C@H](O)[C@H](O)[C@H]1O [Compound 7, verbascoside]
[2]
  presence of pro-inflammatory molecules: decreased the presence of pro-inflammatory molecules
[3]
  activity of tyrosine phosphatase SHP-1: increasing the activity of tyrosine phosphatase SHP-1

## COc1ccc2c(c1)c(CC(=O)O)c(C)n2C(=O)c1ccc(Cl)cc1 [Indomethacin]
[4]
  IC50: 60 ± 0.8 µM
